# Measurements published in article PMC10503797, “Allosteric modulator potentiates β2AR agonist–promoted bronchoprotection in asthma models” (The Journal of Clinical Investigation, 2023).
# Where “and” joins values, the source holds several entries; their conditions need not be identical. Equal values may be shown once.
# Molecular target: guinea pig β2AR (Cavia porcellus, UniProt Q8K4Z4)
# Test: 125I-CYP radioligand competition binding, guinea pig β2AR
# Sequence of guinea pig β2AR (Q8K4Z4 whole entry): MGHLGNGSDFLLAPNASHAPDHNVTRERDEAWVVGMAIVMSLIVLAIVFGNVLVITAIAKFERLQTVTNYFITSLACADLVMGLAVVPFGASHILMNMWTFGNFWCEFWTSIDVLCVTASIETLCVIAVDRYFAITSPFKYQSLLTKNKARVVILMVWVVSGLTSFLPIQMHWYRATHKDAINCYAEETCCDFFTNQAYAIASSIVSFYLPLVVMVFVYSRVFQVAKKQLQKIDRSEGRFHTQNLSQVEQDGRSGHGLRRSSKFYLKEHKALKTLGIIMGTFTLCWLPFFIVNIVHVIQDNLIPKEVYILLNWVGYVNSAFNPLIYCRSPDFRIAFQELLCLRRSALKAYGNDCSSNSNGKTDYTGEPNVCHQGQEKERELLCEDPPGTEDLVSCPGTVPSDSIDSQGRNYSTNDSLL
structure (smiles),measurement,setting,value
COc1ccc(Sc2ccc(S(=O)(=O)N(C)C(C)C)cc2C(=O)N[C@H](CC(N)=O)Cc2ccc(C(C)(C)C)cc2)cc1 [Cmpd-6],"125I-CYP binding, ISO competition curve (Figure 4B)","Cmpd-6 [1 uM], Log [ISO] (M) -4.49485",1.389 and 1.151 and 1.419 and 1.486 and 1.375
same,"125I-CYP binding, ISO competition curve (Figure 4B)","Cmpd-6 [1 uM], Log [ISO] (M) -5.69897",11.9867 and 9.239 and 16.2618 and 13.198 and 14.4523
same,"125I-CYP binding, ISO competition curve (Figure 4B)","Cmpd-6 [1 uM], Log [ISO] (M) -6.90309",60.3981 and 44.4601 and 52.8751 and 61.5704 and 63.6634
same,"125I-CYP binding, ISO competition curve (Figure 4B)","Cmpd-6 [1 uM], Log [ISO] (M) -7.50515",85.4929 and 72.4739 and 91.4188 and 87.166 and 89.8825
same,"125I-CYP binding, ISO competition curve (Figure 4B)","Cmpd-6 [1 uM], Log [ISO] (M) -8.70927",98.0858 and 100.299 and 96.4593 and 97.8108 and 99.3392
same,"125I-CYP binding, ISO competition curve (Figure 4B)","Cmpd-6 [1 uM], Log [ISO] (M) -9.31133",102.219 and 97.3579 and 98.2032 and 100.895 and 101.354
same,"125I-CYP binding, ISO competition curve (Figure 4B)","Cmpd-6 [1 uM], Log [ISO] (M) -9.91339",101.18 and 98.3743 and 98.3138 and 101.016 and 101.111
same,"125I-CYP binding, ISO competition curve (Figure 4B)","Cmpd-6 [1 uM], Log [ISO] (M) -11 (DMSO)",99.0003 and 102.579 and 98.6421 and 100.222 and 97.6049
same,"125I-CYP binding, ISO competition curve (Figure 4B)","Cmpd-6 [5 uM], Log [ISO] (M) -7.50515",44.1147 and 80.7404 and 64.2013 and 72.7308 and 72.5102
same,"125I-CYP binding, ISO competition curve (Figure 4B)","Cmpd-6 [5 uM], Log [ISO] (M) -8.70927",91.2908 and 98.8095 and 98.5241 and 100.522 and 98.3672
same,"125I-CYP binding, ISO competition curve (Figure 4B)","Cmpd-6 [5 uM], Log [ISO] (M) -9.31133",97.2169 and 98.4924 and 100.303 and 100.814 and 103.36
same,"125I-CYP binding, ISO competition curve (Figure 4B)","Cmpd-6 [5 uM], Log [ISO] (M) -9.91339",98.5199 and 97.6422 and 100.698 and 101.104 and 99.2184
same,"125I-CYP binding, ISO competition curve (Figure 4B)","Cmpd-6 [5 uM], Log [ISO] (M) -11 (DMSO)",103.509 and 97.6444 and 99.5117 and 98.3736 and 96.5817
same,"125I-CYP binding, Alb competition curve (Figure 4E)","Cmpd-6 [25 uM], Log [Alb] (M) -4.49485",2.733 and 2.385 and 4.038 and 2.554
same,"125I-CYP binding, Alb competition curve (Figure 4E)","Cmpd-6 [25 uM], Log [Alb] (M) -5.09691",4.618 and 4.73 and 8.896 and 4.926
same,"125I-CYP binding, Alb competition curve (Figure 4E)","Cmpd-6 [25 uM], Log [Alb] (M) -6.30103",28.5337 and 34.114 and 50.4761 and 33.3615
same,"125I-CYP binding, Alb competition curve (Figure 4E)","Cmpd-6 [25 uM], Log [Alb] (M) -6.90309",59.5755 and 62.9432 and 76.3108 and 62.8869
same,"125I-CYP binding, Alb competition curve (Figure 4E)","Cmpd-6 [25 uM], Log [Alb] (M) -7.50515",81.8149 and 87.2785 and 93.3109 and 87.5413
same,"125I-CYP binding, Alb competition curve (Figure 4E)","Cmpd-6 [25 uM], Log [Alb] (M) -8.10721",96.1096 and 95.2866 and 96.5894 and 97.0774
same,"125I-CYP binding, Alb competition curve (Figure 4E)","Cmpd-6 [25 uM], Log [Alb] (M) -8.70927",98.1238 and 100.926 and 100.115 and 99.527
same,"125I-CYP binding, Alb competition curve (Figure 4E)","Cmpd-6 [25 uM], Log [Alb] (M) -9.31133",102.128 and 99.4951 and 103.592 and 101.926
same,"125I-CYP binding, Alb competition curve (Figure 4E)","Cmpd-6 [25 uM], Log [Alb] (M) -9.91339",98.9354 and 102.792 and 101.444 and 100.327
same,"125I-CYP binding, Alb competition curve (Figure 4E)","Cmpd-6 [25 uM], Log [Alb] (M) -11 (DMSO)",100.906 and 97.7704 and 98.4446 and 97.5175
same,"125I-CYP binding, FEN competition curve (Figure 4D)","Cmpd-6 [25 uM], Log [FEN] (M) -4.49485",1.409 and 1.866 and 2.061 and 1.201
same,"125I-CYP binding, FEN competition curve (Figure 4D)","Cmpd-6 [25 uM], Log [FEN] (M) -6.90309",30.825 and 36.7624 and 55.798 and 36.3648
same,"125I-CYP binding, FEN competition curve (Figure 4D)","Cmpd-6 [25 uM], Log [FEN] (M) -7.50515",56.6182 and 66.5595 and 80.6389 and 63.8444
same,"125I-CYP binding, FEN competition curve (Figure 4D)","Cmpd-6 [25 uM], Log [FEN] (M) -8.10721",85.2358 and 86.7408 and 95.8272 and 89.5788
same,"125I-CYP binding, FEN competition curve (Figure 4D)","Cmpd-6 [25 uM], Log [FEN] (M) -8.70927",93.1548 and 97.3369 and 100.273 and 95.4081
same,"125I-CYP binding, FEN competition curve (Figure 4D)","Cmpd-6 [25 uM], Log [FEN] (M) -9.31133",99.631 and 100.281 and 99.1957 and 101.634
same,"125I-CYP binding, FEN competition curve (Figure 4D)","Cmpd-6 [25 uM], Log [FEN] (M) -9.91339",99.9681 and 102.324 and 101.127 and 101.353
same,"125I-CYP binding, FEN competition curve (Figure 4D)","Cmpd-6 [25 uM], Log [FEN] (M) -11 (DMSO)",101.956 and 98.6366 and 99.5621 and 98.3857
same,"125I-CYP binding, ISO competition curve (Figure 4B)","Cmpd-6 [25 uM], Log [ISO] (M) -5.09691",1.411 and 1.274 and 2.38 and 2.249 and 1.1946
same,"125I-CYP binding, ISO competition curve (Figure 4B)","Cmpd-6 [25 uM], Log [ISO] (M) -6.90309",12.3266 and 14.2939 and 23.2433 and 22.4081 and 20.0289
same,"125I-CYP binding, ISO competition curve (Figure 4B)","Cmpd-6 [25 uM], Log [ISO] (M) -7.50515",28.0286 and 51.334 and 48.5832 and 48.3069 and 46.746
same,"125I-CYP binding, ISO competition curve (Figure 4B)","Cmpd-6 [25 uM], Log [ISO] (M) -8.70927",84.2583 and 93.8004 and 93.7052 and 91.4625 and 91.5747
same,"125I-CYP binding, ISO competition curve (Figure 4B)","Cmpd-6 [25 uM], Log [ISO] (M) -9.31133",94.8589 and 99.2775 and 101.069 and 99.6071 and 99.1245
same,"125I-CYP binding, ISO competition curve (Figure 4B)","Cmpd-6 [25 uM], Log [ISO] (M) -9.91339",97.1607 and 99.3939 and 99.6796 and 99.8936 and 100.155
same,"125I-CYP binding, ISO competition curve (Figure 4B)","Cmpd-6 [25 uM], Log [ISO] (M) -11 (DMSO)",103.398 and 98.8874 and 98.4421 and 101.926 and 100.783
same,"125I-CYP binding, Salm competition curve (Figure 4F)","Cmpd-6 [25 uM], Log [Salm] (M) -5.09691",4.291 and 4.483 and 7.953 and 4.185
same,"125I-CYP binding, Salm competition curve (Figure 4F)","Cmpd-6 [25 uM], Log [Salm] (M) -5.69897",11.1208 and 11.4804 and 19.9536 and 11.286
same,"125I-CYP binding, Salm competition curve (Figure 4F)","Cmpd-6 [25 uM], Log [Salm] (M) -6.30103",31.3057 and 32.3004 and 47.2072 and 32.0545
